In patent US6576635B2, “Compositions comprising trimetrexate” (MedImmune Oncology, Inc., priority 1999, dated 2003):

What was measured:
[1] = Relative thermal stability of reconstituted dosage forms; assay type: physicochemical; design: key to Appearance: S = satisfactory (pale green-yellow solution); U = unsatisfactory (discolored solution); settings: 25 ° C.
Protocol: One bulk solution of each dosage form was prepared by combining its vials, held at 25 ° C. and 60% relative humidity in closed containers and tested over time for trimetrexate decomposition and observed for physical appearance. Both dosage forms were tested according to the method in Example 2, except the amount of ascorbic acid equivalent to that in the dosage form was added to the trimetrexate standards being used to evaluate the ascorbate formulation to give equivalent response factors.

[2] = Relative thermal stability of solid dosage forms; assay type: physicochemical; design: key to Appearance: S = satisfactory (pale green-yellow solid); settings: 40° C.
Protocol: Both dosage forms were tested according to the method in Example 2, except the amount of ascorbic acid equivalent to that in the dosage form was added to the trimetrexate HPLC standards being used to evaluate the ascorbate formulation to give equivalent response factors.

[3] = Relative light stability of dosage forms; assay type: physicochemical
Source text: (§1) Dosage forms of trimetrexate glucuronate and trimetrexate ascorbate were dispersed in thin films on watch glasses and exposed to illumination in an air atmosphere over time. The overall illumination was approximately 0.28 million lux hours per day and the integrated near ultraviolet energy was approximately 210 watt hours per square meter per day. Therefore at day 9 the dosage forms had received approximately 2.5 million lux hours of illumination and approximately 1900 watt hours per square meter of integrated near ultraviolet energy. The dosage forms were tested over time for trimetrexate decomposition and observed for physical appearance. Both dosage forms were tested according to the method in Example 2, except the amount of ascorbic acid equivalent to that in the dosage form was added to the trimetrexate HPLC standards being used to evaluate the ascorbate formulation to give equivalent response factors.
(§2) In Table 9, the total quantity of trimetrexate free base is expressed as percent of the initial amount of trimetrexate, and the total amount of impurities is expressed as the sum of the weight percent of the aldehyde degradant and area percent of all other impurities. The oxidative degradation pathway of trimetrexate generates the aldehyde degradant. Its response factor has been determined to be 0.62 relative to that of trimetrexate. Therefore the weight percent of the aldehyde degradant is obtained by dividing the area percent value by the response factor of 0.62.

[4] = Relative light stability of dosage forms; assay type: physicochemical; design: key: S = satisfactory (pale green-yellow solid)
Source text: as §1, §2

[5] = Relative light stability of dosage forms; assay type: physicochemical; design: key: S = satisfactory (pale green-yellow solid); U = unsatisfactory (discolored solid)
Source text: as §1, §2

[6] = in 1:1 methanol/water; cited from earlier work
[7] = test system: murine cell lines such as L1210, L5178Y, S-180, W-256; settings: cited from earlier work
[8] = test system: murine tumors such as B16 melanoma, colon 26 and 38, L1210 and P388 leukemia and CD8F mammary tumors; settings: cited from earlier work
[9] = test system: human tumor cells lines derived from breast, colon, lung, ovary, renal and melanoma cells; settings: cited from earlier work
[10] = test system: P450 enzyme system; settings: cited from earlier work
[11] = exposed to oxygen at room temperature; cited from earlier work
[12] = cited from earlier work
[13] = day 0, reconstituted ~12.5 mg/ml, 60% RH
[14] = day 0, reconstituted ~12.5 mg/ml, 60% RH, HPLC area
[15] = day 0, reconstituted ~12.5 mg/ml, 60% relative humidity
[16] = day 0 of illumination, weight percent aldehyde + area percent other impurities
[17] = day 0, thin film, illumination ~0.28 million lux hours per day, air
[18] = day 9 of illumination (~2.5 million lux hours)

## COc1cc(NCc2ccc3nc(N)nc(N)c3c2C)cc(OC)c1OC.O=C1O[C@H]([C@@H](O)CO)C(O)=C1O [Trimetrexate Ascorbate]
[1]; [13]
  % Label Claim: 99.0%
[1]; [14]
  % Total Imp.: 0.1%
[1]; [15]
  Appearance: S
[1]; day 1, reconstituted, 60% RH
  % Label Claim: 98.5%
  % Total Imp.: 0.1%
  Appearance: S
[1]; day 2, reconstituted, 60% RH
  % Label Claim: 98.4%
  % Total Imp.: 0.1%
  Appearance: S
[1]; day 3, reconstituted, 60% RH
  % Label Claim: 98.8%
  % Total Imp.: 0.2%
  Appearance: S
[1]; day 4, reconstituted, 60% RH
  % Label Claim: 101.0%
  % Total Imp.: 0.4%
  Appearance: S
[1]; day 5, reconstituted, 60% RH
  % Label Claim: 98.2%
  % Total Imp.: 0.3%
  Appearance: S
[1]; day 6, reconstituted, 60% RH
  % Label Claim: 96.5%
  % Total Imp.: 0.4%
  Appearance: S
[1]; day 7, reconstituted, 60% RH
  % Label Claim: 98.7%
  % Total Imp.: 0.6%
  Appearance: S
[2]; 1 month, 75% RH
  % Label Claim: 100.0%
[2]; 1 month, 75% RH, HPLC area
  % Total Imp.: <0.1%
[2]; 1 month, 75% relative humidity
  Appearance: S
[2]; 2 months, 75% RH
  % Label Claim: 99.6%
  % Total Imp.: <0.1%
  Appearance: S
[2]; 3 months, 75% RH
  % Label Claim: 98.9%
  % Total Imp.: <0.1%
  Appearance: S
[3]; day 0 of illumination
  % Aldehyde Degredant (w/w): 0.1%
  % TMX of Initial: 100.0%
[3]; [16]
  % Total Imp.: 0.1%
[3]; day 2 of illumination
  % Aldehyde Degredant (w/w): 0.1%
  % TMX of Initial: 98.3%
  % Total Imp.: 0.4%
[3]; day 4 of illumination
  % Aldehyde Degredant (w/w): 0.1%
  % TMX of Initial: 97.7%
  % Total Imp.: 0.6%
[3]; day 6 of illumination
  % Aldehyde Degredant (w/w): 0.1%
  % TMX of Initial: 97.1%
  % Total Imp.: 1.0%
[3]; day 9 of illumination
  % Aldehyde Degredant (w/w): 0.2%
  % TMX of Initial: 96.1%
  % Total Imp.: 1.4%
[4]; [17]
  Appearance: S
[4]; day 2 of illumination
  Appearance: S
[4]; day 4 of illumination
  Appearance: S
[4]; day 6 of illumination
  Appearance: S
[4]; [18]
  Appearance: S

## COc1cc(NCc2ccc3nc(N)nc(N)c3c2C)cc(OC)c1OC.O=C(O)[C@H]1O[C@H](O)[C@H](O)[C@@H](O)[C@@H]1O [Trimetrexate Glucuronate]
[1]; [13]
  % Label Claim: 95.9%
[1]; [14]
  % Total Imp.: 0.2%
[1]; [15]
  Appearance: S
[1]; day 1, reconstituted, 60% RH
  % Label Claim: 98.6%
  % Total Imp.: 0.2%
  Appearance: S
[1]; day 2, reconstituted, 60% RH
  % Label Claim: 96.8%
  % Total Imp.: 0.4%
  Appearance: S
[1]; day 3, reconstituted, 60% RH
  % Label Claim: 97.1%
  % Total Imp.: 0.5%
  Appearance: U
[1]; day 4, reconstituted, 60% RH
  % Label Claim: 96.1%
  % Total Imp.: 0.8%
  Appearance: U
[1]; day 5, reconstituted, 60% RH
  % Label Claim: 96.5%
  % Total Imp.: 1.1%
  Appearance: U
[1]; day 6, reconstituted, 60% RH
  % Label Claim: 95.0%
  % Total Imp.: 1.5%
  Appearance: U
[1]; day 7, reconstituted, 60% RH
  % Label Claim: 92.1%
  % Total Imp.: 1.9%
  Appearance: U
[2]; 1 month, 75% RH
  % Label Claim: 99.6%
[2]; 1 month, 75% RH, HPLC area
  % Total Imp.: 0.1%
[2]; 1 month, 75% relative humidity
  Appearance: S
[2]; 2 months, 75% RH
  % Label Claim: 100.7%
  % Total Imp.: 0.2%
  Appearance: S
[2]; 3 months, 75% RH
  % Label Claim: 98.0%
  % Total Imp.: 0.3%
  Appearance: S
[3]; day 0 of illumination
  % Aldehyde Degredant (w/w): 0.3%
  % TMX of Initial: 100.0%
[3]; [16]
  % Total Imp.: 0.9%
[3]; day 2 of illumination
  % Aldehyde Degredant (w/w): 2.0%
  % TMX of Initial: 94.4%
  % Total Imp.: 3.1%
[3]; day 4 of illumination
  % Aldehyde Degredant (w/w): 3.8%
  % TMX of Initial: 92.4%
  % Total Imp.: 5.6%
[3]; day 6 of illumination
  % Aldehyde Degredant (w/w): 5.6%
  % TMX of Initial: 87.9%
  % Total Imp.: 8.1%
[3]; day 9 of illumination
  % Aldehyde Degredant (w/w): 8.2%
  % TMX of Initial: 83.6%
  % Total Imp.: 11.8%
[4]; [17]
  Appearance: S
[5]; day 2 of illumination
  Appearance: U
[5]; day 4 of illumination
  Appearance: U
[5]; day 6 of illumination
  Appearance: U
[5]; [18]
  Appearance: U

## COc1cc(NCc2ccc3nc(N)nc(N)c3c2C)cc(OC)c1OC [trimetrexate free base, 2,4-diamino-5-methyl-6-[(3,4,5-trimethoxyanilino)methyl]quinazoline]
[6]
  pKa: 8.0
[7]
  in vitro antitumor activity: in vitro antitumor activity
[8]
  in vivo utility against murine tumors: in vivo utility
[9]
  in vitro activity against human tumor cell lines: in vitro activity
[10]
  metabolism: metabolized by a P450 enzyme system
[11]
  decomposition: decomposes over time
[12]
  water solubility: < 0.1 mg/mL
